Measurements from article PMC2074382 (British Journal of Cancer, 1996).
Where a name gives a salt, the structure may show the parent alone.

Assays:
solid tumour = test: Tumour response (WHO criteria) in phase I study; assay type: in vivo, human
Description: British Journal of Cancer (1996) 73, 744-750 O (C? 1996 Stockton Press All rights reserved 0007-0920/96 $12.00 Phase I and pharmacological study of the new topoisomerase I inhibitor G1147211, using a daily x 5 intravenous administration CJH Gerrits', GJ Creemers', JHM Schellens', P Wissel2, AS Th Planting', R Kunka2, K Selinger2, M de Boer-Dennert', Y Marijnen3, M Harteveld' and J Verweijl 'Department of Medical Oncology, Rotterdam Cancer Institute, Rotterdam, The Netherlands; 2Glaxo Wellcome Inc, Department of Clinical Pharmacology, NC, USA; 3Glaxo Wellcome Inc, Department of Clinical Research, Zeist, The Netherlands. Summary Topoisomerase I inhibitors are interesting anti-cancer agents with a novel mechanism of action. […] In subsequent patient cohorts the dose was escalated from 0.3 to 1.5 mg m-2 day-'. Pharmacokinetics analysis was performed on days 1 and 4 of the first course using a validated high- performance liquid chromatographic assay and non-compartmental methods. […] Its further development was stopped because of unpredictable and severe myelosuppression, gastrointestinal toxicity and haemorrhagic cystitis. In the late 1980s two discoveries brought about a renewal of interest in CPT; firstly, topoisomerase I was identified as the single cellular target of CPT (Hsiang et al., 1985; Hsiang and Liu, 1988) and, secondly, an overexpression of topoisomerase I was found in various tumour cell lines but not in normal tissues (Giovanella et al., 1989; Hirabayaski et al., 1992; Potmesil et al., 1988). Topoisomerase I is a nuclear enzyme that resolves topological problems of the torsionally strained (supercoiled) DNA (Slichenmyer et al., 1993). This is achieved by forming a covalent adduct between topoisome- rase I and the DNA, termed the cleavable complex. This catalytic intermediate creates single-strand DNA breaks, allowing the DNA molecule to rotate around the intact DNA strand at the cleavage site, leading to a relaxation of the DNA molecule and in this way replication, transcription and other DNA functions can proceed. These enzyme- bridged breaks are then resealed by topoisomerase I. CPT stabilises the cleavable complexes, thereby preventing resealing of single-strand DNA breaks in the presence of the drug (Covey et al., 1989; D'Arpa and Liu, 1989; Eng et al., 1988). Cytotoxicity is specific to the S-phase of the cell cycle because the double-strand breaks that occur during this phase are more difficult to repair in the presence of the drug (Horwitz and Horwitz, 1973). […]

mice = settings: by rough estimate; cited from earlier work
[1] = test system: HT-29 and SW-48 colon, PC-3 prostate, MX-1 breast, H460 lung, SKOV3 ovarian and KB epidermoid carcinomas xenografts; settings: HT-29, SW-48, PC-3, MX-1, H460, SKOV3, KB; ref Emerson et al., 1993, 1994, 1995; cited from earlier work
bone marrow cultures = settings: ref Emerson et al., 1995; cited from earlier work

Q: Which “stable disease, patients” value (solid tumour; 18 evaluable patients) does the source give for `CC[C@@]1(O)C(=O)OCc2c1cc1n(c2=O)Cc2c-1nc1cc3c(cc1c2CN1CCN(C)CC1)OCCO3` [GI147211, [7 - (methylpiperazinomethylene) - 10,11 - ethylene-dioxy-20(S)] camptothecin dihydrochloride] here?
A: ten

Q: And the “response in leiomyosarcoma patient” value (solid tumour; liver metastasis of leiomyosarcoma of the stomach, after two courses)?
A: minor response

Q: What about the “partial response, patients” value (solid tumour; metastatic colorectal cancer resistant to 5-FU/folinic acid, 18 evaluable patients) of the same compound?
A: One

Q: And the duration of remission (solid tumour; partial response, colorectal cancer)?
A: 6 weeks

Q: And the “murine LD10 compared with topotecan” value (mice)?
A: equivalent to topotecan

Q: And the “cytotoxicity against xenografts of human cancers” value [1]?
A: cytotoxicity against several xenografts of human cancers

Q: And the “myelotoxicity compared with topotecan” value (bone marrow cultures)?
A: more myelotoxic than topotecan
